Test results as given in US20230348369A1 (Cytokinetics, Inc., priority 2020, published 2023).
pEC50: −log10 of the molar value. Like-named read-outs stand apart in the source and are kept apart here.

Molecular target: human NAMPT (Homo sapiens, UniProt P43490)
Test: Human recombinant enzyme assay (NMN fluorescence biochemical assay, activation of NAMPT)
In short: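 NMN production is detected fluorometrically (Ex 355/Em 460 nm) 40 min after acetophenone, KOH and formic acid derivatization. Reactions ran 60 min at ambient temperature: 6 nM human NAMPT, nicotinamide 150 μM, PRPP 20 μM, ATP 2.5 mM, buffered at pH 7.2 with 50 mM HEPES plus DTT, CHAPS, NaCl and 100 mM MgCl2.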

[1] = Table A, human recombinant NAMPT, NMN formation, 60 min
[2] = Table A, human recombinant NAMPT, NMN formation, 60 min, read-out: EC50 Human

human NAMPT, sequence (P43490 whole entry): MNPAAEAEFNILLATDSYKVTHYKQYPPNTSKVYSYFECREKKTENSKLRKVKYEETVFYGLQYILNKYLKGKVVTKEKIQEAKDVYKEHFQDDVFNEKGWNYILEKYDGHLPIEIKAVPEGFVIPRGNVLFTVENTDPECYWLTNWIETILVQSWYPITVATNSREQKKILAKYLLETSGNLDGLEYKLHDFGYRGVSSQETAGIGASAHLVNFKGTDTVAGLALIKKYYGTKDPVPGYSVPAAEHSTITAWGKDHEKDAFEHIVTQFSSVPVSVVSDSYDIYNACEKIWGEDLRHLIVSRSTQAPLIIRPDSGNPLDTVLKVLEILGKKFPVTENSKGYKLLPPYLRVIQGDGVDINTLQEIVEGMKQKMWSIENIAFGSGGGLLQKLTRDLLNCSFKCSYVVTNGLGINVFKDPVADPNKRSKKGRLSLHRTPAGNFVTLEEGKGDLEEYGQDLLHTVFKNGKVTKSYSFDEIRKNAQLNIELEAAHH

| SMILES | AC1.4 Human [1] [µM] | pEC50 [2] | pEC50 |
| --- | --- | --- | --- |
| Cc1ccc(C(C)(O)C2CC3(CC(NC(=O)NCc4ccc(Cl)cc4)C3)C2)cn1 (centres unmarked) [Compound 338, 1-(4-chlorobenzyl)-3-(6-(1-hydroxy-1-(6-methylpyridin-3-yl)ethyl)spiro[3.3]heptan-2-yl)urea] | 6.4 | 4.99 |  |
| COc1ccc(CNC(=O)NC2CC3(C2)CC(C(=O)Nc2ccccc2)C3)cc1 (centres unmarked) [Compound 86, 6-(3-(4-methoxybenzyl)ureido)-N-phenylspiro[3.3]heptane-2-carboxamide] | 4.7 | 4.31 |  |
| CC(C(=O)N(C)Cc1ccccc1)C1CC2(CC(NC(=O)NCc3ccc(Cl)cc3)C2)C1 (centres unmarked) [Compound 237, N-benzyl-2-(6-(3-(4-chlorobenzyl)ureido)spiro[3.3]heptan-2-yl)-N-methylpropanamide] | 2.4 | 5.59 |  |
| O=C(NCc1ccc(Cl)cc1)NC1CC2(C1)CC(N(Cc1ccccc1)Cc1ccccc1)C2 (centres unmarked) [Compound 119, 1-(4-chlorobenzyl)-3-(6-(dibenzylamino)spiro[3.3]heptan-2-yl)urea] | 3.8 | 4.78 |  |
| O=C(NCCCCC1CCN(C(=O)c2ccccc2)CC1)NCc1ccncc1 [Compound 1, 1-(4-(1-benzoylpiperidin-4-yl)butyl)-3-(pyridin-4-ylmethyl)urea] | 0.1 | 6.10 |  |
| COc1ccc(CNC(=O)NC2CC3(C2)CC(C(=O)NC2CCCc4cc(F)ccc42)C3)cc1 (stereo in doubt) [Compound 98, (S)-N-(6-fluoro-1,2,3,4-tetrahydronaphthalen-1-yl)-6-(3-(4-methoxybenzyl)ureido)spiro[3.3]heptane-2-carboxamide] | 3.0 | 5.15 |  |
| Cc1cnccc1C(=O)N1CC[C@]2(C1)C[C@@H](NC(=O)NCc1ccc(Cl)cc1)C2 [Compound 166, 1-(4-chlorobenzyl)-3-((2r,4s)-6-(3-methylisonicotinoyl)-6-azaspiro[3.4]octan-2-yl)urea] | 14.2 | 4.37 |  |
| O=C(NCc1ccc(Cl)cc1)NC1CC2(C1)CC(Oc1cccnc1)C2 (centres unmarked) [Compound 343, 1-(4-chlorobenzyl)-3-(6-(pyridin-3-yloxy)spiro[3.3]heptan-2-yl)urea] | 3.0 |  | 5.25 |
| NC(=O)c1ccc(CNC(=O)NC2CC3(C2)CC(Nc2ccccn2)C3)cc1 (centres unmarked) [Compound 26, 4-((3-(6-(pyridin-2-ylamino)spiro[3.3]heptan-2-yl)ureido)methyl)benzamide] | 2.0 |  | 4.78 |
| Cc1cc(C(=O)N2CC3(CC(NC(=O)NCc4ccc(C(N)=O)cc4)C3)C2)ccn1 [Compound 226, 4-((3-(2-(2-methylisonicotinoyl)-2-azaspiro[3.3]heptan-6-yl)ureido)methyl)benzamide] | 2.9 | 4.50 |  |
| CS(=O)(=O)c1cccc(C(=O)NC2CC3(CC(NC(=O)NCc4ccc(Cl)cc4)C3)C2)c1 (centres unmarked) [Compound 195, N-(6-(3-(4-chlorobenzyl)ureido)spiro[3.3]heptan-2-yl)-3-(methylsulfonyl)benzamide] | 17.1 | 4.63 |  |
| COc1ccc(CNC(=O)NC2CC3(C2)CC(C(=O)N(C)[C@@H](C)c2ccccc2F)C3)cc1 (stereo partly drawn) [Compound 60, (S)-N-(1-(2-fluorophenyl)ethyl)-6-(3-(4-methoxybenzyl)ureido)-N-methylspiro[3.3]heptane-2-carboxamide] | 0.3 | 5.21 |  |
| COc1ccc(CNC(=O)NC2CC3(C2)CN(C(=O)c2cccc(C(C)C)c2)C3)cc1 [Compound 173, 1-(2-(3-isopropylbenzoyl)-2-azaspiro[3.3]heptan-6-yl)-3-(4-methoxybenzyl)urea] | 1.7 | 4.69 |  |
| CC(C)(C)OC(=O)NC1CC2(CC(NC(=O)NCc3ccc(Cl)cc3)C2)C1 (racemic) [Compound 8] |  | 5.29 |  |
| COc1ccc(CNC(=O)NC2CC3(C2)CC(C(=O)NC2Cc4ccccc4C2O)C3)cc1 (centres unmarked) [Compound 94, N-(1-hydroxy-2,3-dihydro-1H-inden-2-yl)-6-(3-(4-methoxybenzyl)ureido)spiro[3.3]heptane-2-carboxamide] | 11.0 | 4.41 |  |
| COc1ccc(C(=O)N2CC[C@]3(C2)C[C@H](NC(=O)NCc2ccc(Cl)cc2)C3)cc1 [Compound 165, 1-(4-chlorobenzyl)-3-((2s,4r)-6-(4-methoxybenzoyl)-6-azaspiro[3.4]octan-2-yl)urea] | 15.9 | 4.31 |  |

The next lines start with results.

| AC1.4 Human [1] [µM] | pEC50 [2] | SMILES | pEC50 |
| --- | --- | --- | --- |
| 0.2 | 5.72 | [2H]C([2H])(NC(=O)NCCCCC1CCN(C(=O)c2ccccc2)CC1)c1cnco1 [Compound 324, 1-(4-(1-benzoylpiperidin-4-yl)butyl)-3-(oxazol-5-ylmethyl-d2)urea] |  |
| 33.1 | 4.25 | CS(=O)(=O)C1CC2(CC(NC(=O)NCc3ccc(Cl)cc3)C2)C1 (centres unmarked) [Compound 342, 1-(4-chlorobenzyl)-3-(6-(methylsulfonyl)spiro[3.3]heptan-2-yl)urea] |  |
| 1.1 | 5.11 | O=C(NCCCCC1CCN(C(=O)c2cccnc2)CC1)NCc1ccc(Cl)cc1 [Compound 289, 1-(4-chlorobenzyl)-3-(4-(1-nicotinoylpiperidin-4-yl)butyl)urea] |  |
| 0.6 | 5.31 | Cc1ccccc1NC(=O)CCCCCNC(=O)NCc1ccc(Cl)cc1 [Compound 262, 6-(3-(4-chlorobenzyl)ureido)-N-(o-tolyl)hexanamide] |  |
| 1.3 | 5.21 | O=C(NCCCCC1CCN(C(=O)c2ccncc2)CC1)NCc1ccc(Cl)cc1 [Compound 290, 1-(4-chlorobenzyl)-3-(4-(1-isonicotinoylpiperidin-4-yl)butyl)urea] |  |
| 5.3 | 4.77 | O=C(NCc1ccc(Cl)cc1)NC1CC2(CC(CS(=O)(=O)c3cccnc3)C2)C1 (centres unmarked) [Compound 353, 1-(4-chlorobenzyl)-3-(6-((pyridin-3-ylsulfonyl)methyl)spiro[3.3]heptan-2-yl)urea] |  |
| 0.9 | 5.70 | O=C(NCCCCC1CCN(C(=O)c2ccccc2-c2nnn[nH]2)CC1)NCc1ccc(Cl)cc1 [Compound 315, 1-(4-(1-(2-(1H-tetrazol-5-yl)benzoyl)piperidin-4-yl)butyl)-3-(4-chlorobenzyl)urea] |  |
| 2.6 | 4.81 | O=C1CC(C(=O)N2CCC(CCCCNC(=O)NCc3ccc(Cl)cc3)CC2)CN1 (centres unmarked) [Compound 303, 1-(4-chlorobenzyl)-3-(4-(1-(5-oxopyrrolidine-3-carbonyl)piperidin-4-yl)butyl)urea] |  |
| 3.5 | 5.03 | O=C(CCCCCNC(=O)NCc1ccc(Cl)cc1)Nc1cccc(F)c1 [Compound 285, 6-(3-(4-chlorobenzyl)ureido)-N-(3-fluorophenyl)hexanamide] |  |
| 8.6 | 4.48 | O=C(Cc1cccnc1)NCCCCCNC(=O)NCc1ccc(Cl)cc1 [Compound 283, N-(5-(3-(4-chlorobenzyl)ureido)pentyl)-2-(pyridin-3-yl)acetamide] |  |
| 0.5 | 5.70 | O=C(NCCCCC1CCN(C(=O)c2ccccn2)CC1)NCc1ccc(Cl)cc1 [Compound 292, 1-(4-chlorobenzyl)-3-(4-(1-picolinoylpiperidin-4-yl)butyl)urea] |  |
